Laboratory results as given in patent US20110098352A1, “N,N-DISUBSTITUTED AMINOALKYLBIPHENYL ANTAGONISTS OF PROSTAGLANDIN D2 RECEPTORS” (AMIRA PHARMACEUTICALS, INC., priority 2008, published 2011).

Tests used:
[1] = target: T1, recombinant human CRTH2 receptor (Homo sapiens, UniProt Q9Y5Y4); experiment: GTPγS binding assay; type: biochemical; conditions: +HSA; CHO cell membranes, 80 nM PGD2; read-out: hDP2 GTPγS μM (+HSA)
T1 construct: expressed in transfected cells
T1 sequence (Q9Y5Y4 1-395): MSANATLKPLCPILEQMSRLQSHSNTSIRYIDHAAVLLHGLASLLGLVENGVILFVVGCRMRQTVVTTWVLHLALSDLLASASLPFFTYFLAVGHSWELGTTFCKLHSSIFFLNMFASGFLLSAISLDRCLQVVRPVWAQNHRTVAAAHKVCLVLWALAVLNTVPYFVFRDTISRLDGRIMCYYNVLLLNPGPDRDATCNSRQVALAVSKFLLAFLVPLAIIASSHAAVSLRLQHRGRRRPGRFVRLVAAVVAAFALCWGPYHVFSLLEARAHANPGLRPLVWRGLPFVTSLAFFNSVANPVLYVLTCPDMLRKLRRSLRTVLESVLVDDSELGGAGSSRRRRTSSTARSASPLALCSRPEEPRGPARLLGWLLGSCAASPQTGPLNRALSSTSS
Protocol: The ability of a compound to inhibit binding of GTP to DP2 is assessed via a membrane GTPγS assay. CHO cells stably expressing the recombinant human CRTH2 receptor are resuspended in 10 mM Hepes, 7.4 containing 1 mM DTT, lysed and centrifuged at 75,000×g to pellet the membranes. The membranes are resuspended in 10 mM Hepes, 7.4 containing 1 mM DTT and 10% glycerol. […] The reactions are terminated by rapid filtration through Whatman GF/B glass fibre filter plates. The filter plates are washed 3 times with 1 ml cold Assay Buffer and dried. Scintillant is then added to the plates and the radioactivity retained on the filters is determined on a Packard TopCount (Perkin Elmer). Specific binding is determined as total radioactive binding minus non-specific binding in the absence of the ligand (80 nM PGD2). IC50s were determined using Graphpad prism analysis of drug titration curves.

human DP2 receptor = target: T2, human DP2 receptor (Homo sapiens, UniProt Q9Y5Y4); experiment: DP2/CRTH2 radioligand binding assay using [3H]PGD2; conditions: [3H]PGD2 binding, membranes of HEK293 cells expressing recombinant human DP2; read-out: hDP2
T2 construct: expressed in transfected cells
T2 sequence (Q9Y5Y4 1-395): T1 sequence (Q9Y5Y4 1-395)
Summary of the method: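 HEK293 membranes with stable recombinant human DP2, incubated with 1 nM [3H]PGD2 and compound 60 min at room temperature in pH 7.4 HEPES/MnCl2/EDTA buffer, with or without 0.2% human serum albumin.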

human DP1 receptor = target: T3, human DP1 receptor (Homo sapiens, UniProt Q13258); experiment: DP1 radioligand membrane binding assay using [3H]BWA868C; conditions: [3H]BWA868C binding, human platelet membranes; read-out: hDP1
T3 construct: tissue Biological Specialty Corporation; host or cells: human platelets, membranes
T3 sequence (Q13258 1-359): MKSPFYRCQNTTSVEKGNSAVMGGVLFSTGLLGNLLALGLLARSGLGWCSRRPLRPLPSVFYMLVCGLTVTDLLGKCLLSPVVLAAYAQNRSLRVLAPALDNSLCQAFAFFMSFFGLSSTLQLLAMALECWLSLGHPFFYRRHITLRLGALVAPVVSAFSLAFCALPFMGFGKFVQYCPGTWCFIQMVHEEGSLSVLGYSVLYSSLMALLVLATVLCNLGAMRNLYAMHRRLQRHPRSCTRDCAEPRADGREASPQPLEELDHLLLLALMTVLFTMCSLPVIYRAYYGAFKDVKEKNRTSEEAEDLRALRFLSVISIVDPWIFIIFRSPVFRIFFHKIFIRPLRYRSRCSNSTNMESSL

IC50 [1] [µM]	IC50 (human DP2 receptor) [nM]	IC50 (human DP1 receptor) [nM]	SMILES
< 0.3	< 300	> 1000	CCN(Cc1ccccc1)C(=O)N(CC)Cc1cc(C(F)(F)F)ccc1-c1cc(CC(=O)O)ccc1OC [Compound 1-94, [2′-(3-Benzyl-1,3-diethyl-ureidomethyl)-6-methoxy-4′-trifluoromethyl-biphenyl-3-yl]-acetic acid]
< 0.3	< 300	> 1000	CCN(Cc1cc(C(F)(F)F)ccc1-c1cc(CC(=O)O)ccc1OC)C(=O)NCc1ccccc1 [Compound 1-96, [2′-(3-Benzyl-1-ethyl-ureidomethyl)-6-methoxy-4′-trifluoromethyl-biphenyl-3-yl]-acetic acid]
< 0.3	< 300	> 1000	CCN(Cc1cc(C(F)(F)F)ccc1-c1cc(CC(=O)O)ccc1Cl)C(=O)OCc1ccccc1 [Compound 1-110]
< 0.3	< 300	> 1000	CCN(Cc1cc(C(F)(F)F)ccc1-c1cc(CC(=O)O)ccc1OC)C(=O)C(C)(C)Oc1ccc(Cl)cc1 [Compound 1-118, [2′-({[2-(4-Chloro-phenoxy)-2-methyl-propionyl]-ethyl-amino}-methyl)-6-methoxy-4′-trifluoromethyl-biphenyl-3-yl]-acetic acid]
< 0.3	< 300	> 1000	CCOc1ccc(CC(=O)O)cc1-c1ccc(C(F)(F)F)cc1CN(CC)C(=O)OCc1ccccc1 [Compound 1-129]
< 0.3	< 300	> 1000	CCN(Cc1cc(F)ccc1-c1cc(CC(=O)O)ccc1OC)C(=O)C1CC1 [Compound 1-186, {2′-[(Cyclopropanecarbonyl-ethyl-amino)-methyl]-4′-fluoro-6-methoxy-biphenyl-3-yl}-acetic acid]
0.3 to 1	300 to 1000	> 1000	O=C(O)CCn1c2c(c3ccccc31)C[C@H](NS(=O)(=O)c1ccc(F)cc1)CC2 [Ramatroban, reference compound]
